# From US5502209A, “Benzopyrancarboxamide derivatives, salts thereof, process for the preparation of same and use thereof” (Sanwa Kagaku Kenkyusho Co., Ltd., priority 1994, dated 1996)
# Where a name gives a salt, the structure may show the parent alone.
# Biological target: T1, 5-HT4 receptor (Rattus norvegicus, UniProt Q62758)
# T1 construct: a muscular sample of mucous membrane in esophgus exentrated from a rat; from tissue; host or cells: rat oesophagus, muscularis mucosae (isolated)
# Experiment: Agonisting action to 5-HT4 receptor: relaxation of carbachol-contracted muscular sample of mucous membrane of rat esophagus (Baxter et al.)
# Format: cell-based
# Conditions: carbachol contraction, read-out: P EC50 (negative logarithm of concentration causing 50% relaxation) (converted)
# Excerpt: (Agonisting action to 5-HT4 receptor)
# Pharmacol.", Vol. 343, page 439 (1991)!.
# Namely, a relaxation of the Test and Control compounds in various concentration showing to carbachol contradiction of a muscular sample of mucous membrane in esophgus exentrated from a rat was checked to calculate a concentration causing 50% relaxation and compared with its negative logarithm (P EC50).
# T1 sequence (Q62758 whole entry): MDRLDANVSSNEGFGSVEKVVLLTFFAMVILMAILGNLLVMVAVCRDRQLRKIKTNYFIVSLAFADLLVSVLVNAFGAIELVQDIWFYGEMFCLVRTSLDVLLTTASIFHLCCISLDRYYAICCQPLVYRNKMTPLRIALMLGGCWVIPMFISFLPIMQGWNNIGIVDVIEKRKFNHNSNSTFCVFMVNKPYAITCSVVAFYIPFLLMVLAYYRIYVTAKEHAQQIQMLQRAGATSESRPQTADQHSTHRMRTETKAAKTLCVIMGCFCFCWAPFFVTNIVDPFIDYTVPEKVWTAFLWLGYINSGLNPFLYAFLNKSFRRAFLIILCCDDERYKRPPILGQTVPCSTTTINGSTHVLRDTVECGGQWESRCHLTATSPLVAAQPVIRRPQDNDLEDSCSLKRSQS
row,EC50,Structure (SMILES)
1,0.0251 µM,"Nc1c(Cl)cc(C(=O)NCCC23CCCN2CCC3)c2c1C=CCO2 [Example 3, 5-Amino-N-2-(1-azabicyclo 3.3.0!octan-5-yl)ethyl!-6-chloro-2H-1-benzopyran-8-carboxamide·1/2 fumarate]"
2,12.6 µM,"O=C(NCCC12CCCN1CCC2)c1cccc2c1OCCC2 [Example 4, N-2-(1-Azabicyclo 3.3.0!octan-5-yl)ethyl!-3,4-dihydro-2H-1-benzopyran-8-carboxamide·1/2 fumarate]"
3,25.1 µM,"O=C(NCCC12CCCN1CCC2)c1ccc(Cl)c2c1OCCC2 [Example 5, N-2-(1-Azabicyclo 3.3.0!octan-5-yl)ethyl!-3,4-dihydro-5-chloro-2H-1-benzopyran-8-carboxamide· fumarate]"
4,12.6 µM,"O=C(NCCC12CCCN1CCC2)c1cc(Cl)cc2c1OCCC2 [Example 6, N-2-(1-Azabicyclo 3.3.0!octan-5-yl)ethyl!-3,4-dihydro-6-chloro-2H-1-benzopyran-8-carboxamide·1/2 fumarate]"

# Further lines, the compound ahead of its results:
row,Structure (SMILES),EC50
1,"Nc1c(Cl)cc(C(=O)NCCC23CCCN2CCC3)c2c1CCCO2 [Example 1, 5-Amino-N-2-(1-azabicyclo 3.3.0!octan-5-yl)ethyl!-6-chloro-3,4-dihydro-2H-1-benzopyran-8-carboxamide·1/2 fumarate]",0.00501 µM
2,"CC1CCc2c(N)c(Cl)cc(C(=O)NCCC34CCCN3CCC4)c2O1 (stereo not drawn) [Example 2, 5-Amino-N-2-(1-azabicyclo 3.3.0!octan-5-yl)ethyl!-6-chloro-3,4-dihydro-2-methyl-2H-1-benzopyran-8-carboxamide·1/2 fumarate]",0.02 µM
3,"COc1cc2c(c(C(=O)NCCC34CCCN3CCC4)c1)OCCC2 [Example 7, N-2-(1-Azabicyclo 3.3.0!octan-5-yl)ethyl!-3,4-dihydro-6-methoxy-2H-1-benzopyran-8-carboxamide·1/2 fumarate]",25.1 µM
4,"Cc1ccc(C(=O)NCCC23CCCN2CCC3)c2c1CCCO2 [Example 8, N-2-(1-Azabicyclo 3.3.0!octan-5-yl)ethyl!-3,4-dihydro-5-methyl-2H-1-benzopyran-8-carboxamide·1/2 fumarate]",20 µM
5,"Cc1cc2c(c(C(=O)NCCC34CCCN3CCC4)c1)OCCC2 [Example 9, N-2-(1-Azabicyclo 3.3.0!octan-5-yl)ethyl!-3,4-dihydro-6-methyl-2H-1-benzopyran-8-carboxamide·1/2 fumarate]",15.8 µM
6,"CC(=O)Nc1c(Cl)cc(C(=O)NCCC23CCCN2CCC3)c2c1CCCO2 [Example 10, 5-Acetylamino-N-2-(1-azabicyclo 3.3.0!octan-5-yl)ethyl!-6-chloro-3,4-dihydro-2H-1-benzopyran-8-carboxamide· fumarate]",7.94 µM

# System: dopamine D2 receptor
# Experiment: not given
# Conditions: rat, in vivo, po, 100 mg/kg
# Excerpt: The compounds obtained by Examples as well as known compound (Metoclopramide) were selected as Test and Control Compounds, respectively. The compound was orally administered to rats to observe for 2 days general symptoms including catalepsy and blepharoptosis due to antagonistic action of the compound to dopamine D2 receptor.
row,Structure (SMILES),influence to central nerve system due to anti-dopamine action
1,"CCN(CC)CCNC(=O)c1cc(Cl)c(N)cc1OC [Metoclopramide, 4-amino-5-chloro-N-(2-diethylamino)ethyl!-2-methoxybenzamide]",somewhat remarkable influence was recognized

# System: 5-HT4 receptor
# Experiment: not given
# Conditions: known compound, as said in the art; cited from earlier work
row,Structure (SMILES),agonisting action to 5-HT4 receptor
1,COc1cc(N)c(Cl)cc1C(=O)NC1CCN(CCCOc2ccc(F)cc2)CC1OC (stereo not drawn) [Cisapride],strong agonisting action to 5-HT4 receptor
